The NIST ThermoML archive (doi:10.1016/j.tca.2005.08.036)

Test: mn = molality of the nth substance listed, in mol/kg
Details: Liquid, Capillary tube (Ostwald / Ubbelohde) method

[I-].[Li+] [lithium iodide] + O
viscosity [mPa·s]
Details | 100 kPa | 10000 kPa | 40000 kPa
293.15 K, m1 = 0.08 | 1.009 | 1.005 | 0.9978
293.15 K, m1 = 0.16 | 1.015 | 1.012 | 1.004
293.15 K, m1 = 0.2832 | 1.025 | 1.02 | 1.014
293.15 K, m1 = 0.6621 | 1.05 | 1.047 | 1.039
293.15 K, m1 = 1.605 | 1.122 | 1.118 | 1.112
293.15 K, m1 = 2.16 | 1.158 | 1.154 | 1.147
293.15 K, m1 = 3.089 | 1.227 | 1.224 | 1.215
298.15 K, m1 = 0.08 | 0.8961 | 0.8946 | 0.892
298.15 K, m1 = 0.16 | 0.9025 | 0.9012 | 0.8979
298.15 K, m1 = 0.2832 | 0.9114 | 0.9098 | 0.907
298.15 K, m1 = 0.6621 | 0.9363 | 0.9351 | 0.9225
298.15 K, m1 = 1.605 | 1.002 | 1.001 | 0.9979
298.15 K, m1 = 2.16 | 1.04 | 1.038 | 1.035
298.15 K, m1 = 3.089 | 1.108 | 1.101 | 1.097
304.75 K, m1 = 0.6621 | 0.8141 | 0.8149 | 0.8164
304.77 K, m1 = 0.08 | 0.7764 | 0.777 | 0.7779
307.45 K, m1 = 3.089 | 0.9235 | 0.925 | 0.9291
308.74 K, m1 = 0.16 | 0.7215 | 0.7221 | 0.7256
310.64 K, m1 = 0.2832 | 0.7028 | 0.7047 | 0.7074
311.74 K, m1 = 1.605 | 0.7684 | 0.77 | 0.7748
312.45 K, m1 = 2.16 | 0.7939 | 0.7957 | 0.8016
322.51 K, m1 = 0.2832 | 0.5682 | 0.5704 | 0.5768
323.45 K, m1 = 1.605 | 0.6301 | 0.6327 | 0.6406
323.74 K, m1 = 0.16 | 0.5504 | 0.5527 | 0.5599
324.02 K, m1 = 2.16 | 0.6554 | 0.6584 | 0.6666
324.23 K, m1 = 0.6621 | 0.5733 | 0.5758 | 0.5829
324.62 K, m1 = 0.08 | 0.5385 | 0.5407 | 0.5475
325.64 K, m1 = 3.089 | 0.6865 | 0.6896 | 0.6986
341.69 K, m1 = 0.08 | 0.4164 | 0.4192 | 0.4252
343.64 K, m1 = 0.6621 | 0.4337 | 0.4368 | 0.4458
344.06 K, m1 = 0.16 | 0.4065 | 0.4093 | 0.4177
344.66 K, m1 = 1.605 | 0.4673 | 0.4708 | 0.4804
345.43 K, m1 = 2.16 | 0.4884 | 0.4912 | 0.5015
347.42 K, m1 = 0.2832 | 0.394 | 0.3976 | 0.4052
348.24 K, m1 = 3.089 | 0.5101 | 0.5144 | 0.5255
363.94 K, m1 = 3.089 | 0.4275 | 0.4317 | 0.4435
364.95 K, m1 = 2.16 | 0.3905 | 0.3944 | 0.4048
367.05 K, m1 = 0.2832 | 0.3119 | 0.3142 | 0.3227
368.75 K, m1 = 1.605 | 0.3544 | 0.358 | 0.3678
368.79 K, m1 = 0.16 | 0.3014 | 0.3044 | 0.3128
369.35 K, m1 = 0.08 | 0.2968 | 0.2996 | 0.3079
369.49 K, m1 = 0.6621 | 0.3189 | 0.3222 | 0.3313
396.7 K, m1 = 0.08 | – | 0.2301 | 0.2381
397.72 K, m1 = 2.16 | – | 0.2921 | 0.3023
397.82 K, m1 = 0.16 | – | 0.2304 | 0.2385
398.32 K, m1 = 0.2832 | – | 0.2331 | 0.2414
398.72 K, m1 = 3.089 | – | 0.3165 | 0.3278
398.94 K, m1 = 1.605 | – | 0.2713 | 0.2809
399.03 K, m1 = 0.6621 | – | 0.2447 | 0.2534
421.45 K, m1 = 0.6621 | – | 0.206 | 0.2139
422.12 K, m1 = 0.08 | – | 0.1885 | 0.1959
422.41 K, m1 = 3.089 | – | 0.2666 | 0.277
422.47 K, m1 = 1.605 | – | 0.2275 | 0.2363
424.14 K, m1 = 0.2832 | – | 0.1913 | 0.1988
424.41 K, m1 = 2.16 | – | 0.24 | 0.2494
424.49 K, m1 = 0.16 | – | 0.1874 | 0.1947
444.25 K, m1 = 2.16 | – | 0.2119 | 0.2206
447.54 K, m1 = 3.089 | – | 0.2284 | 0.2383
447.94 K, m1 = 1.605 | – | 0.1945 | 0.2029
448.75 K, m1 = 0.16 | – | 0.1602 | 0.1674
449.02 K, m1 = 0.08 | – | 0.1581 | 0.1648
449.06 K, m1 = 0.6621 | – | 0.1725 | 0.1802
449.71 K, m1 = 0.2832 | – | 0.1622 | 0.1696
472.45 K, m1 = 0.08 | – | 0.1387 | 0.1452
472.92 K, m1 = 0.2832 | – | 0.1429 | 0.1501
473.06 K, m1 = 1.605 | – | 0.1699 | 0.1784
473.07 K, m1 = 2.16 | – | 0.1815 | 0.19
473.46 K, m1 = 0.16 | – | 0.1397 | 0.1467
473.71 K, m1 = 3.089 | – | 0.1992 | 0.2091
474.98 K, m1 = 0.6621 | – | 0.1497 | 0.1572
522.7 K, m1 = 0.16 | – | 0.1109 | 0.1182
523.42 K, m1 = 3.089 | – | 0.1603 | 0.1711
523.72 K, m1 = 0.08 | – | 0.1089 | 0.1163
524.07 K, m1 = 0.2832 | – | 0.1123 | 0.1199
524.86 K, m1 = 1.605 | – | 0.1344 | 0.1433
525.42 K, m1 = 0.6621 | – | 0.1185 | 0.1266
525.49 K, m1 = 2.16 | – | 0.1435 | 0.1531
